Experimental data from ChEMBL document CHEMBL3994635, “Inhibition of LPS-stimulated ROS production by fluorinated and hydroxylated chalcones in RAW 264.7 macrophages with structure-activity relationship study” (Bioorg Med Chem Lett, 2017).

What was measured:
RAW264.7 [1] = assay: Inhibition of LPS-stimulated ROS production in mouse RAW264.7 cells preincubated for 1 hr followed by LPS stimulation for 24 hrs measured after 30 mins by CMH2DCFDA probe-based fluorescence assay; assay type: functional, cell-based
RAW264.7 [2] = assay: Cytotoxicity in mouse RAW264.7 cells assessed as cell viability after 24 hrs by MTS assay; assay type: cell-based; conditions: raw264.7, 24 h
[3] = Cytotoxicity in mouse RAW264.7 cells assessed as cell viability at 1 uM after 24 hrs by MTS assay; assay type: cell-based; conditions: read-out: Activity
RAW264.7 [4] = assay: Inhibition of LPS-stimulated ROS production in mouse RAW264.7 cells after 22 hrs by C-400 fluorescent dye-based assay; assay type: functional, cell-based; conditions: RAW264.7, 22 h

SMILES	IC50 (RAW264.7 [1])	Activity (RAW264.7 [2])	viability at 24 h, 1 µM [3]	IC50 (RAW264.7 [4])
O=C(/C=C/c1ccccc1C(F)(F)F)c1ccccc1	> 10 µM	Non-Toxic	–	–
O=C(/C=C/c1cccc(C(F)(F)F)c1)c1ccccc1	> 10 µM	Non-Toxic	–	–
O=C(/C=C/c1ccc(C(F)(F)F)cc1)c1ccccc1	> 10 µM	Non-Toxic	–	–
O=C(/C=C/c1ccc(F)cc1)c1ccccc1O	> 10 µM	Non-Toxic	–	–
O=C(/C=C/c1ccccc1C(F)(F)F)c1ccccc1O	–	–	< 90%	–
O=C(/C=C/c1ccccc1F)c1ccccc1O	> 10 µM	Non-Toxic	–	–
O=C(/C=C/c1cccc(F)c1)c1ccccc1O	> 10 µM	Non-Toxic	–	–
O=C(/C=C/c1ccc(C(F)(F)F)cc1)c1ccccc1O	> 10 µM	Non-Toxic	–	–
O=C(/C=C/c1ccccc1C(F)(F)F)c1ccc(O)cc1	> 10 µM	Non-Toxic	–	–
O=C(/C=C/c1cccc(F)c1)c1cccc(O)c1	> 10 µM	Non-Toxic	–	–
O=C(/C=C/c1ccccc1OC(F)(F)F)c1cccc(O)c1	1.61 µM	Non-Toxic	–	–
O=C(/C=C/c1ccc(OC(F)(F)F)cc1)c1cccc(O)c1	> 10 µM	Non-Toxic	–	–
O=C(/C=C/c1cccc(F)c1)c1ccc(O)cc1	9.15 µM	Non-Toxic	–	–
O=C(/C=C/c1cccc(OC(F)(F)F)c1)c1ccccc1O	–	–	< 90%	–
O=C(/C=C/c1cccc(C(F)(F)F)c1)c1ccccc1O	–	–	< 90%	–
O=C(/C=C/c1ccccc1OC(F)(F)F)c1ccccc1	> 10 µM	Non-Toxic	–	–
O=C(/C=C/c1ccccc1F)c1cccc(O)c1	> 10 µM	Non-Toxic	–	–
O=C(/C=C/c1ccc(C(F)(F)F)cc1)c1cccc(O)c1	> 10 µM	Non-Toxic	–	–

SMILES	IC50 (RAW264.7 [1])	Activity (RAW264.7 [2])	viability at 24 h, 1 µM [3]	IC50 (RAW264.7 [4])
O=C(/C=C/c1ccccc1OC(F)(F)F)c1ccc(O)cc1	1.34 µM	Non-Toxic	–	–
O=C(/C=C/c1cccc(C(F)(F)F)c1)c1ccc(O)cc1	1.44 µM	Non-Toxic	–	–
O=C(/C=C/c1ccccc1F)c1ccccc1	> 10 µM	Non-Toxic	–	–
O=C(/C=C/c1ccccc1F)c1ccc(O)cc1	> 10 µM	Non-Toxic	–	–
O=C(/C=C/c1ccc(OC(F)(F)F)cc1)c1ccc(O)cc1	> 10 µM	Non-Toxic	–	–
O=C(/C=C/c1ccccc1OC(F)(F)F)c1ccccc1O	–	–	< 90%	–
O=C(/C=C/c1ccc(OC(F)(F)F)cc1)c1ccccc1	> 10 µM	Non-Toxic	–	–
O=C(/C=C/c1cccc(C(F)(F)F)c1)c1cccc(O)c1	–	–	< 90%	–
O=C(/C=C/c1ccc(F)cc1)c1cccc(O)c1	> 10 µM	Non-Toxic	–	–
O=C(/C=C/c1cccc(OC(F)(F)F)c1)c1cccc(O)c1	> 10 µM	Non-Toxic	–	–
O=C(/C=C/c1cccc(F)c1)c1ccccc1	> 10 µM	Non-Toxic	–	–
O=C(/C=C/c1cccc(OC(F)(F)F)c1)c1ccccc1	> 10 µM	Non-Toxic	–	–
O=C(/C=C/c1cccc(OC(F)(F)F)c1)c1ccc(O)cc1	> 10 µM	Non-Toxic	–	–
O=C(/C=C/c1ccccc1C(F)(F)F)c1cccc(O)c1	> 10 µM	Non-Toxic	–	–
O=C(/C=C/c1ccc(OC(F)(F)F)cc1)c1ccccc1O	> 10 µM	Non-Toxic	–	–
O=C(/C=C/c1ccc(C(F)(F)F)cc1)c1ccc(O)cc1	> 10 µM	Non-Toxic	–	–
O=C(/C=C/c1ccc(F)cc1)c1ccc(O)cc1	> 10 µM	Non-Toxic	–	–
COc1cc(-c2[o+]c3cc(O)cc(O)c3cc2O)cc(OC)c1O [MALVIDIN CHLORIDE]	–	–	–	9 µM
